According to patent US20260103455A1, “ULK3 INHIBITORS AND USES THEREOF” (H. LEE MOFFITT CANCER CENTER AND RESEARCH INSTITUTE, INC., priority 2022, published 2026):
Where “and” joins values, the source holds several entries; their conditions need not be identical. Identical values can stand only once.

What was measured:
JAK2 [1] = molecular target: T1, JAK2 (Homo sapiens, UniProt O60674); assay: IC50 for JAK2, Reaction Biology kinase assay (32P Hotspot assay); format: biochemical
ULK3 [2] = molecular target: T2, ULK3 (Homo sapiens, UniProt Q6PHR2); assay: DSF (ULK3) thermal shift; format: binding
T2 sequence (Q6PHR2 1-472): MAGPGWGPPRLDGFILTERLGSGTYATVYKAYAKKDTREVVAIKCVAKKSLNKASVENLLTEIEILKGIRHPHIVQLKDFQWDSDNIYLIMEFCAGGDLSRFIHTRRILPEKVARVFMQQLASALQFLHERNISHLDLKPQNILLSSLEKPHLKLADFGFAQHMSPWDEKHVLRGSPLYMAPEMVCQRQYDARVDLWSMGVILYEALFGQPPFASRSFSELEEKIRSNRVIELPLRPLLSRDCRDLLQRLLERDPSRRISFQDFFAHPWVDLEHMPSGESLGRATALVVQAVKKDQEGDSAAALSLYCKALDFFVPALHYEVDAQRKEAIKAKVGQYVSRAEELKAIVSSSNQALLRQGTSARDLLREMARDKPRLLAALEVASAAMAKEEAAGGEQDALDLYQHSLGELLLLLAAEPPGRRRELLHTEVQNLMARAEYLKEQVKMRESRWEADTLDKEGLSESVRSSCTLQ

JAK2 [3] = molecular target: T1, JAK2; assay: DSF (JAK2) thermal shift; format: binding
8226 = assay: GI50 (MM cell) 8226; format: cell-based
U266 PSR = assay: GI50 (MM cell) U266 PSR; format: cell-based; conditions: Homo sapiens, U-266
OPM2 = assay: GI50 (MM cell) OPM2; format: cell-based; conditions: Homo sapiens, OPM-2
ULK3 [4] = molecular target: T2, ULK3; assay: IC50 for ULK3, Reaction Biology kinase assay (32P Hotspot assay); format: biochemical
8226 B25 = assay: GI50 (MM cell) 8226 B25; format: cell-based
U266 = assay: GI50 (MM cell) U266; format: cell-based; conditions: Homo sapiens, U-266

T1 sequence (O60674 whole entry): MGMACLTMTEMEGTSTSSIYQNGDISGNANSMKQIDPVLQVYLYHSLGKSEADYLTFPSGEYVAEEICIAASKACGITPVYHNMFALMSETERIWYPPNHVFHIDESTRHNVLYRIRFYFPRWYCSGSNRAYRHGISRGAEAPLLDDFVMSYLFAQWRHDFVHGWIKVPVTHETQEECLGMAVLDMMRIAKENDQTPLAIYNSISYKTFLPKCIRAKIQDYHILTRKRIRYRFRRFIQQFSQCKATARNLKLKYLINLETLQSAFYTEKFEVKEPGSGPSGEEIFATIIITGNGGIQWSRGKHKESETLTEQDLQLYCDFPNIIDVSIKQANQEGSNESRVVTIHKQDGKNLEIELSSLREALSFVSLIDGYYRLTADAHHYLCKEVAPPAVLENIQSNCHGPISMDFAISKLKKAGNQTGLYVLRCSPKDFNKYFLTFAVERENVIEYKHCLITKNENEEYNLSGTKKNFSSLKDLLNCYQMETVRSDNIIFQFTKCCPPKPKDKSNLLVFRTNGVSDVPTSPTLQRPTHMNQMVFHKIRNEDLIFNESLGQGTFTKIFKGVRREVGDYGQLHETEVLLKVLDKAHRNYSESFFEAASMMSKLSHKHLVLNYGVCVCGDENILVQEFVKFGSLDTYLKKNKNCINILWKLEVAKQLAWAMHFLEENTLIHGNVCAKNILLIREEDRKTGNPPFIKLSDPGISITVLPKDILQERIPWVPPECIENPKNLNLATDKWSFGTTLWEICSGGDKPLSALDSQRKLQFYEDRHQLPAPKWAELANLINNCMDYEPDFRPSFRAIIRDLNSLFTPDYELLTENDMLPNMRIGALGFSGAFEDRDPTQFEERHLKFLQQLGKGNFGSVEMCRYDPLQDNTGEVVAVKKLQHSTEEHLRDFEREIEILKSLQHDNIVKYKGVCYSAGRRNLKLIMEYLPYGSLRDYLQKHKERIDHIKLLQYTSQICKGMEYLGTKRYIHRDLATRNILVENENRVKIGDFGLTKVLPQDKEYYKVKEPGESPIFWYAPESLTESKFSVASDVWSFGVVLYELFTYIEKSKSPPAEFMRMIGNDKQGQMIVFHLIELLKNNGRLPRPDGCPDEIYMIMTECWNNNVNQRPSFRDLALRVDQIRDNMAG

Row | Structure (SMILES) | IC50 (JAK2 [1]) [nM] | DSF (ULK3) ΔTm (° C.) (ULK3 [2]) | DSF (JAK2) ΔTm (° C.) (JAK2 [3]) [°C] | GI50 8226 [nM] | GI50 (U266 PSR) [nM] | GI50 (OPM2) [nM] | IC50 (ULK3 [4]) [nM] | GI50 (8226 B25) [nM] | GI50 (U266) [nM]
1 | Cc1cnc(Nc2ccc(N3CCOCC3)cc2)nc1Nc1ccc(Cl)c(NS(=O)(=O)C(C)(C)C)c1 [BH1-150] | 1.25 | 15.0 °C | 2.1 |  |  |  |  |  | 
2 | O=C(NCC(F)(F)F)c1ccc(-c2ccnc(Nc3ccc(N4CCOCC4)cc3)n2)cc1 [SR8-169, 4-(2-((4-Morpholinophenyl)amino)pyrimidin-4-yl)-N-(2,2,2-trifluoroethyl)benzamide] | < 0.508 | 15.0 °C and 11.7 °C and 14.7 °C |  | 83.5 | 4410 | 15.1 | 10.3 | 214 | 86.2
3 | O=C(c1ccc(-c2ccnc(Nc3ccc(N4CCOCC4)cc3)n2)cc1)N1CCC[C@@H]1C(F)(F)F [BH1-160, (R)-(4-(2-((4-Morpholinophenyl)amino)pyrimidin-4-yl)phenyl) (2-(trifluoromethyl)pyrrolidin-1-yl) methanone] | 8.56 |  | 1.4 |  |  |  |  |  | 
4 | CC(C)(C)[C@@H](CO)NC(=O)c1ccc(-c2ccnc(Nc3ccc(N4CCOCC4)cc3)n2)cc1 [BH1-062, (S)—N-(1-Hydroxy-3,3-dimethylbutan-2-yl)-4-(2-((4-morpholinophenyl)amino)pyrimidin-4-yl)benzamide] | 12.9 |  | 1.0 |  |  |  |  |  | 
5 | CC(NC(=O)c1ccc(-c2ccnc(Nc3ccc(N4CCOCC4)cc3)n2)cc1)C(F)(F)F (racemic) [SR8-170, (RS)-4-(2-((4-Morpholinophenyl)amino)pyrimidin-4-yl)-N-(1,1,1-trifluoropropan-2-yl)benzamide] | 1.31 | 14.3 °C and 14.4 °C |  | 290 | 1580 | 6700 | 8.71 | 404 | 210
6 | C[C@@H](NC(=O)c1ccc(-c2ccnc(Nc3ccc(N4CCOCC4)cc3)n2)cc1)C(F)(F)F [BH1-151, (R)-4-(2-((4-Morpholinophenyl)amino)pyrimidin-4-yl)-N-(1,1,1-trifluoropropan-2-yl)benzamide] | 1.13 | 14.0 °C | 0.4 |  |  |  |  |  | 
7 | O=C(c1ccc(-c2ccnc(Nc3ccc(N4CCOCC4)cc3)n2)cc1)N1CCC[C@H]1C(F)(F)F [BH1-159, (S)-(4-(2-((4-Morpholinophenyl)amino)pyrimidin-4-yl)phenyl) (2-(trifluoromethyl)pyrrolidin-1-yl) methanone] | 74.2 |  | 1.1 |  |  |  |  |  | 
8 | CN1CCC(c2cnc(Nc3nc(-c4ccc(C(=O)NCC(F)(F)F)cc4)c4cc[nH]c4n3)cc2F)CC1 [RF1-060, 4-(2-((4-Fluoro-5-(1-methylpiperidin-4-yl)pyridin-2-yl)amino)-7H-pyrrolo[2,3-d]pyrimidin-4-yl)-N-(2,2,2-trifluoroethyl)benzamide] |  | 6.8 °C |  | 12000 | 870 | 909 |  | 2930 | 4600
9 | CN1CCN(Cc2ccc(Nc3nc(-c4ccc(C(=O)NCC#N)cc4)c4cc[nH]c4n3)cc2)CC1 [RF1-024, N-(Cyanomethyl)-4-(2-((4-((4-methylpiperazin-1-yl)methyl)phenyl)amino)-7H-pyrrolo[2,3-d]pyrimidin-4-yl)benzamide] | < 0.508 |  |  | 3630 | 2580 | 159 |  | 9490 | 917
10 | O=C(NC(CO)Cc1ccccc1)c1ccc(-c2ccnc(Nc3ccc(N4CCOCC4)cc3)n2)cc1 (stereo not drawn) [BR1-008] |  |  | 0.5 |  |  |  | 2280 |  | 
11 | C[C@H](NC(=O)c1ccc(-c2ccnc(Nc3ccc(N4CCOCC4)cc3)n2)cc1)C(F)(F)F [BH1-152, (S)-4-(2-((4-Morpholinophenyl)amino)pyrimidin-4-yl)-N-(1,1,1-trifluoropropan-2-yl)benzamide] | 0.746 | 12.5 °C | 0.7 |  |  |  |  |  | 
